According to patent US20240262806A1, “INHIBITORS OF NLRP3” (PTC THERAPEUTICS, INC., priority 2021, published 2024):
pIC50: −log10 of the molar value. Structures can show the parent of a compound that is named as a salt.

Tested on: NLRP3 inflammasome
Assay: IL-1β Secretion Assay (NLRP3-dependent IL-1β secretion in PMA-differentiated THP-1 cells, nigericin activation, HTRF)
Format: cell-based
Conditions: Homo sapiens, THP-1, THP-1 cells, 100 ng/mL PMA 24 h, compound 20 h, 2.5 μM Nigericin 3 h; read-out: IC50 IL-1β Inhibition
Method in brief: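 PMA-differentiated THP-1 cells in RPMI with 5% FBS were treated with compounds at 7 concentrations in threefold DMSO dilutions. NLRP3 was activated with nigericin and secreted IL-1β measured by HTRF. IC50 from a logistic fit of percent inhibition versus concentration.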

| SMILES | pIC50 |
| --- | --- |
| O=C(O)CN1CCC[C@@H](Nc2nnc(-c3ccc(C(F)(F)F)cc3O)c3ccccc23)C1 [Compound I-98, (R)-2-(3-((4-(2-Hydroxy-4-(trifluoromethyl)phenyl)phthalazin-1-yl)amino)piperidin-1-yl)acetic acid] | > 9.00 |
| CCN1CCC[C@@H](Nc2nnc(-c3ccc(OC(F)F)cc3OC(F)F)c3cccn23)C1 [Compound I-613] | 8.00 to 9.00 |
| COc1cc(C(F)(F)F)ccc1-c1nnc(N[C@@H]2CCCN(C)C2)n2ccnc12 [Compound I-386, 8-[2-Methoxy-4-(trifluoromethyl)phenyl]-N-[(3R)-1-methyl-3-piperidyl]imidazo[1,2-d][1,2,4]triazin-5-amine formic acid salt] | 6.52 to 7.00 |
| CCN1C[C@H](F)C[C@@H](Nc2nnc(-c3ccc(C(F)(F)F)cc3OC(F)F)c3cccn23)C1 [Compound I-538] | 8.00 to 9.00 |
| Cc1cc(F)c(-c2nnc(N[C@@H]3CCCN(C)C3)n3cccc23)c(OC(F)F)c1 [Compound I-428] | 7.00 to 8.00 |
| COc1ccc(-c2nnc(N[C@@H]3CCCNC3)c3cc(C)nn23)c(O)c1 [Compound I-339] | 6.52 to 7.00 |
| CN1CCC[C@@H](Nc2nnc(-c3ccc(C(F)(F)F)cc3O)c3c2N(C)CCO3)C1 [Compound I-117] | 7.00 to 8.00 |
| Oc1cc(C(F)(F)F)ccc1-c1nnc(N[C@@H]2CCOC2)n2cccc12 [Compound I-474] | 7.00 to 8.00 |
| Oc1cc(C(F)(F)F)ccc1-c1nnc(N[C@@H]2CCCOC2)n2cccc12 [Compound I-401] | 6.52 to 7.00 |
| COc1cc(O)c(-c2nnc(N[C@@H]3CCCN(C)C3)n3cccc23)c(F)c1 [Compound I-456] | > 9.00 |
| CCN1CCC[C@@H](Nc2nnc(-c3c(O)cc(C)cc3F)c3cccn23)C1 [Compound I-498] | > 9.00 |
| CN1CCC[C@@H](Nc2nnc(-c3ccc(C(F)(F)F)cc3C(F)(F)F)c3c2CCC3)C1 [Compound I-259] | 7.00 to 8.00 |
| OCCN1CCC[C@@H](Nc2nnc(-c3c(O)cccc3F)c3ccncc23)C1 [Compound I-285, 3-Fluoro-2-[4-[[(3R)-1-(2-hydroxyethyl)-3-piperidyl]amino]pyrido[3,4-d]pyridazin-1-yl]phenol] | 8.00 to 9.00 |
| CC1(O)CCCC(Nc2nnc(-c3ccc(C(F)(F)F)cc3O)c3cccn23)C1 (stereo not shown) [Compound I-450] | 7.00 to 8.00 |
| Cc1cc(O)c(-c2nnc(N[C@@H]3CCCN(C)C3)c3ccccc23)cc1C [Compound I-41] | 8.00 to 9.00 |
| COc1cc(C(F)(F)F)ccc1-c1nnc(N2CCC(N(C)C)CC2)c2cnccc12 [Compound I-201] | 7.00 to 8.00 |
| CCN1CCC[C@@H](Nc2nnc(-c3ccc(C(F)(F)F)cc3OC(F)F)c3cnccc23)C1 [Compound I-235] | 8.00 to 9.00 |
| Oc1cc(Cl)ccc1-c1nnc(N[C@@H]2CCCOC2)n2cccc12 [Compound I-402] | 7.00 to 8.00 |
| Oc1cc(C2CC2)cc(F)c1-c1nnc(N[C@@H]2CCCOC2)n2cccc12 [Compound I-423] | 7.00 to 8.00 |
| CCc1cc(O)c(-c2nnc(N[C@@H]3CCCN(C)C3)n3cccc23)c(F)c1 [Compound I-563] | > 9.00 |
| CCOC(=O)[C@@H]1CC[C@@H](Nc2nnc(-c3ccc(C(F)(F)F)cc3O)c3ccncc23)CN1C [Compound I-318, Ethyl (2S,5R)-5-((1-(2-hydroxy-4-(trifluoromethyl)phenyl)pyrido[3,4-d]pyridazin-4-yl)amino)-1-methylpiperidine-2-carboxylate] | > 9.00 |
| FC(F)Oc1cc(C(F)(F)F)ccc1-c1nnc(N[C@@H]2CCCOC2)n2cccc12 [Compound I-376] | 8.00 to 9.00 |

| SMILES | pIC50 |
| --- | --- |
| OCCN1CCC[C@@H](Nc2nnc(-c3ccc(C(F)(F)F)cc3OC(F)F)c3ccncc23)C1 [Compound I-206, 2-[(3R)-3-[[1-[2-(Difluoromethoxy)-4-(trifluoromethyl)phenyl]pyrido[3,4-d]pyridazin-4-yl]amino]-1-piperidyl]ethanol] | > 9.00 |
| CCN1CCC[C@@H](Nc2nnc(-c3ccc(OC)cc3C(F)(F)F)c3cccn23)C1 [Compound I-392] | 8.00 to 9.00 |
| Cc1cc(O)c(-c2nnc(N[C@@H]3C[C@@H](F)CN(C)C3)n3cccc23)c(F)c1 [Compound I-444] | > 9.00 |
| CN1CCC[C@@H](Nc2nnc(-c3ccc(-n4ccnn4)cc3O)c3ccccc23)C1 [Compound I-37] | 7.00 to 8.00 |
| Cc1cc(C(F)(F)F)ccc1-c1nnc(N[C@@H]2CCCN(C)C2)c2cnccc12 [Compound I-290] | 8.00 to 9.00 |
| Cc1ccc(-c2nnc(N[C@@H]3CCCN(C)C3)c3cnccc23)c(C)c1 [Compound I-216] | 8.00 to 9.00 |
| CN1CCN(c2nnc(-c3ccc(C(F)(F)F)cc3O)c3cnccc23)CC1 [Compound I-116] | 6.52 to 7.00 |
| CN1CCC[C@@H](Nc2nnc(-c3c(O)cccc3F)c3ccncc23)C1 [Compound I-72] | 8.00 to 9.00 |
| CN1CCC[C@@H](Nc2nnc(-c3ccc(C(F)(F)F)cc3C#N)c3ccccc23)C1 [Compound I-131] | 8.00 to 9.00 |
| CCN1CCC[C@@H](Nc2nnc(-c3ccc(OC)cc3O)c3ccnn23)C1 [Compound I-632] | 8.00 to 9.00 |
| CN1CCC[C@@H](Nc2nnc(-c3ccc(OC4CC4)cc3O)c3ccncc23)C1 [Compound I-237, (R)-5-Cyclopropoxy-2-(4-((1-methylpiperidin-3-yl)amino)pyrido[3,4-d]pyridazin-1-yl)phenol] | 8.00 to 9.00 |
| CN1CCC[C@@H](Nc2nnc(-c3ccc(C4CC4)cc3O)c3c(F)ccn23)C1 [Compound I-599] | 8.00 to 9.00 |
| Cc1cc(F)c(-c2nnc(N[C@@H]3CCCOC3)n3cccc23)c(OC(F)F)c1 [Compound I-464] | 6.52 to 7.00 |
| CN1CCC[C@@H](Nc2nnc(-c3ccc(C(F)(F)F)cc3OC(F)F)c3ccccc23)C1 [Compound I-120] | 8.00 to 9.00 |
| CN1C[C@H](O)C[C@@H](Nc2nnc(-c3c(O)cc(C4CC4)cc3F)c3cccn23)C1 [Compound I-387, (3R,5R)-5-[[1-(4-Cyclopropyl-2-fluoro-6-hydroxy-phenyl)pyrrolo[1,2-d][1,2,4]triazin-4-yl]amino]-1-methyl-piperidin-3-ol] | 7.00 to 8.00 |
| CN1CCC[C@@H](Nc2nnc(-c3ccc(C(F)(F)F)cc3F)c3ccccc23)C1 [Compound I-127] | 8.00 to 9.00 |
| CN1CCC[C@@H](Nc2nnc(-c3ccccc3O)c3ccccc23)C1 [Compound I-33] | 8.00 to 9.00 |
| FC(F)Oc1cc(C(F)(F)F)ccc1-c1nnc(N[C@@H]2CCCN(C3CCC3)C2)c2cnccc12 [Compound I-312] | > 9.00 |
| CN1CCC[C@H](Cc2nnc(-c3ccc(C(F)(F)F)cc3O)c3ccccc23)C1 [Compound I-97, (R)-2-(4-((1-methylpiperidin-3-yl)methyl)phthalazin-1-yl)-5-(trifluoromethyl)phenol] | > 9.00 |
| Cc1nc(-c2ccc(-c3nnc(N[C@@H]4CCCN(C)C4)c4ccccc34)c(O)c2)ns1 [Compound I-38] | > 9.00 |
| CN(C)C1CCC[C@@H](Nc2nnc(-c3c(O)cc(C4CC4)cc3F)c3cccn23)C1 (stereo partly shown) [Compound I-541] | > 9.00 |
| C[C@]1(O)C[C@@H](Nc2nnc(-c3ccc(C(F)(F)F)cc3O)c3ccncc23)C1 [Compound I-305] | > 9.00 |

| SMILES | pIC50 |
| --- | --- |
| COc1ccc(-c2nnc(N[C@@H]3CCCN(C)C3)n3nccc23)c(O)c1 [Compound I-634, (R)-5-Methoxy-2-(7-((1-methylpiperidin-3-yl)amino)pyrazolo[1,5-d][1,2,4]triazin-4-yl)phenol] | 7.00 to 8.00 |
| CCN1C[C@H](F)C[C@@H](Nc2nnc(-c3c(O)cc(C4CC4)cc3F)c3cccn23)C1 [Compound I-576] | > 9.00 |
| CN1CCC[C@@H](Nc2nnc(-c3ccc(OC(F)(F)F)cc3O)c3ccncc23)C1 [Compound I-102] | > 9.00 |
| COc1cc(Br)ccc1-c1nnc(N[C@@H]2CCCNC2)n2nccc12 [Compound I-390] | 6.52 to 7.00 |
| CN1CCC[C@@H](Nc2nnc(-c3ccc(C4=CCCOC4)cc3O)c3ccccc23)C1 [Compound I-52] | 8.00 to 9.00 |
| CCN1CCC[C@@H](Nc2nnc(-c3c(O)cc(C)cc3F)c3cncn23)C1 [Compound I-626] | > 9.00 |
| COc1ccc(-c2nnc(NC[C@@H](C)O)n3cccc23)c(O)c1 [Compound I-587] | 7.00 to 8.00 |
| CC(C)(O)CNc1nnc(-c2c(O)cc(C3CC3)cc2F)c2cccn12 [Compound I-540] | 7.00 to 8.00 |
| CN1CCC[C@@H](Nc2nnc(-c3ccc(C(F)(F)F)cc3OC(F)F)c3cc(C4CC4)nn23)C1 [Compound I-346] | 8.00 to 9.00 |
| CN1CCC[C@@H](Nc2nnc(-c3c(O)cccc3F)c3ccccc23)C1 [Compound I-14] | 8.00 to 9.00 |
| Oc1cc(C(F)(F)F)ccc1-c1nnc(N[C@@H]2CCCN(CC(F)(F)F)C2)c2cnccc12 [Compound I-283] | > 9.00 |
| Oc1cc(Cl)ccc1-c1nnc(N[C@@H]2CCCOC2)n2cncc12 [Compound I-518, (R)-5-Chloro-2-(4-((tetrahydro-2H-pyran-3-yl)amino)imidazo[1,5-d][1,2,4]triazin-1-yl)phenol] | 8.00 to 9.00 |
| CCN1CCC[C@@H](Nc2nnc(-c3c(O)cc(OC(F)F)cc3F)c3cccn23)C1 [Compound I-616] | > 9.00 |
| Oc1cc(C(F)(F)F)ccc1-c1nnc(N[C@@H]2CCCNC2)c2ccccc12 [Compound I-20, 2-[4-[[(3R)-3-Piperidyl]amino]phthalazin-1-yl]-5-(trifluoromethyl)phenol] | > 9.00 |
| CCN1C[C@H](F)C[C@@H](Nc2nnc(-c3ccc(OC(F)(F)F)cc3O)c3c(F)ccn23)C1 [Compound I-598] | 8.00 to 9.00 |
| OCCN1CCC[C@@H](Nc2nnc(-c3ccc(Br)cc3O)c3cccn23)C1 [Compound I-529] | 8.00 to 9.00 |
| CCN1CCC[C@H]1CNc1nnc(-c2c(O)cc(C3CC3)cc2F)c2cccn12 [Compound I-583] | 8.00 to 9.00 |
| Oc1cc(C(F)(F)F)ccc1-c1nnc(NC2CCCCC2)c2cnccc12 [Compound I-288] | 8.00 to 9.00 |
| CN1C[C@H](F)C[C@@H](Nc2nnc(-c3c(O)cc(OC(F)F)cc3F)c3cccn23)C1 [Compound I-617] | 8.00 to 9.00 |
| CN1CC=C[C@@H](Nc2nnc(-c3ccc(C(F)(F)F)cc3O)c3cncn23)C1 [Compound I-460] | 8.00 to 9.00 |
